The compounds below were run on HBV (assay: HBV-DNA antiviral assay using HepG2.117 cells (intracellular HBV DNA by qPCR)). Settings: HBV DNA inhibition, 3 days incubation, read-out: EC50.
Format: cell-based, HBV genotype D
Experimental: The following assay procedure describes the HBV antiviral assay, using HepG2.117 cells, which carry a stably integrated genotype D HBV genome under the control of a Tet-off promoter, and intracellular HBV DNA quantification as endpoint. Cell viability is assessed in parallel by measuring the intracellular ATP content using ATPlite (Perkin Elmer).
On day 0, HepG2.117 cells (which are maintained in routine cell culture with doxycycline present in the medium at a final concentration of 1 μg/mL) were seeded in 96-well plates (white with clear bottom) at a density of 2.0×10^4 cells/well (0.1 mL/well) in medium without doxycycline to induce pgRNA transcription and subsequent formation of HBV particles. The cells were incubated at 37° C. and 5% CO2.
On day 1, medium was removed from each well, the test articles were diluted in culture medium without doxcycyline and 100 μL was added to cell culture wells (9 concentrations, 4-fold dilution). For each plate, 6 untreated (merely DMSO) wells were included. The final concentration of DMSO in the culture medium was 2%. Each plate was prepared in duplicate (one for HBV DNA extraction, one for ATPlite measurement). The cells were incubated at 37° C. and 5% CO2 for 3 days.
On day 4, cell viability was assessed using ATPlite and cell lysates were prepared for HBV DNA extraction and subsequent quantification by qPCR.
Medium was removed from each well and 100 μL of 0.33% NP-40 in H2O was added to each well. Plates were sealed, incubated at 4° C. for 5 mins, vortexed extensively and centrifuged briefly. Next, 35 μL of lysate was added to 65 μL QuickExtract DNA Extraction Solution (Epicentre) in a PCR plate for each well. PCR plate was incubated at 65° C. for 6 mins, 98° C. for 2 mins and finally cooled to 4° C. HBV DNA was then quantified by qPCR with HBV-specific primers and probes as specified in Table 1 using the Bio-Rad SSOAdvanced Universal Probes Supermix on a CFX96 machine (Bio-Rad). The PCR cycle program consisted of 95° C. for 3 mins, followed by 40 cycles at 95° C. for 10 sec and 60° C. for 30 sec.
A DNA standard was prepared by dilution of an IDT gBlock corresponding to the amplicon with concentrations ranging from 10^2 to 10^8 copies/input (i.e. per 4 μL) and used to generate a standard curve by plotting Cq values vs. HBV DNA standard concentration. The quantity of HBV DNA in each sample was determined by interpolating from the standard curve.
Cell viability was calculated as follows: % Cell viability=(luminescence value of test sample)/(average luminescence value of 2% DMSO control)×100%. HBV DNA inhibition was calculated as follows: 100−(HBV DNA copy number of test sample)/(average HBV DNA copy number of 2% DMSO control)×100%. No normalization to entecavir was required due to the excellent dynamic window of this assay. The CC50, EC50 and EC90 values were determined by dose-response curves fitted using non-linear regression.
With `Cc1nnc(-c2ccccc2CNC(=O)c2c3n(c(=O)n2-c2ccc(OC4CC4)cc2)CC(C)N(C(=O)c2ccc(Br)c(Cl)c2)C3)o1` (single isomer, unassigned) [Compound 1b, (6R*)-7-(4-bromo-3-chlorobenzoyl)-2-(4-cyclopropoxyphenyl)-6-methyl-N-(2-(5-methyl-1,3,4-oxadiazol-2-yl)benzyl)-3-oxo-2,3,5,6,7,8-hexahydroimidazo[1,5-a]pyrazine-1-carboxamide] the EC50 was < 50 nM.
`CC1Cn2c(c(C(=O)NCc3c(F)cccc3-c3ccncn3)n(-c3ccc(OC4CC4)cc3)c2=O)CN1C(=O)c1ccc(Br)c(Cl)c1` (single isomer, unassigned) [Compound 2b, (R*)-7-(4-bromo-3-chlorobenzoyl)-2-(4-cyclopropoxyphenyl)-N-(2-fluoro-6-(pyrimidin-4-yl)benzyl)-6-methyl-3-oxo-2,3,5,6,7,8-hexahydroimidazo[1,5-a]pyrazine-1-carboxamide] was tested, and the EC50 was < 50 nM.
`CC1Cn2c(c(C(=O)NCc3ccccc3-c3ncccn3)n(-c3ccc(OC4CC4)cc3)c2=O)CN1C(=O)c1ccc(Br)c(Cl)c1` (single isomer, unassigned) [Compound 3b, (6R*)-7-(4-bromo-3-chloro-benzoyl)-2-[4-(cyclopropoxy)phenyl]-6-methyl-3-oxo-N-[(2-pyrimidin-2-ylphenyl)methyl]-6,8-dihydro-5H-imidazo[1,5-a]pyrazine-1-carboxamide] gave an EC50 of 50 to 500 nM.

Same assay, conditions: Hepatitis B virus, HepG2.117, 72 h, HBV DNA inhibition, 3 days incubation, read-out: EC50
`CNc1ccnc(-c2ccccc2CNC(=O)c2c3n(c(=O)n2-c2ccc(OC4CC4)cc2)CC(C)N(C(=O)c2ccc(Br)c(C(F)(F)F)c2)C3)n1` (racemic) [Compound 28a, rac-(6R)-7-[4-bromo-3-(trifluoromethyl)benzoyl]-2-[4-(cyclopropoxy)phenyl]-6-methyl-N-[[2-[4-(methylamino)pyrimidin-2-yl]phenyl]methyl]-3-oxo-6,8-dihydro-5H-imidazo[1,5-a]pyrazine-1-carboxamide] was tested, and the EC50 was < 50 nM.
In the case of `C[C@@H]1Cn2c(c(C(=O)NCc3c(F)cccc3-c3ccccn3)n(-c3ccc(OC4CC4)cc3)c2=O)CN1C(=O)c1ccc(Br)c(C(F)(F)F)c1` (racemic) [Compound 41a, rac-(6R)-7-[4-bromo-3-(trifluoromethyl)benzoyl]-2-[4-(cyclopropoxy)phenyl]-N-[[2-fluoro-6-(2-pyridyl)phenyl]methyl]-6-methyl-3-oxo-6,8-dihydro-5H-imidazo[1,5-a]pyrazine-1-carboxamide], the EC50 is reported as < 50 nM.
Work on `C[C@H]1Cn2c(c(C(=O)NCc3ccccc3-c3ccncn3)n(-c3ccc(OC[C@H](O)C(F)(F)F)cc3)c2=O)CN1C(=O)c1ccc(Br)c(C(F)(F)F)c1` (racemic) [Compound 63b, (6SR)-7-[4-bromo-3-(trifluoromethyl)benzoyl]-6-methyl-3-oxo-N-[(2-pyrimidin-4-ylphenyl)methyl]-2-[4-[(25)-3,3,3-trifluoro-2-hydroxy-propoxy]phenyl]-6,8-dihydro-5H-imidazo[1,5-a]pyrazine-1-carboxamide] yielded an EC50 of 50 to 500 nM.
For `C[C@H](O)COc1ccc(-n2c(C(=O)NCc3ccccc3-c3ncccn3)c3n(c2=O)C[C@H](C)N(C(=O)c2ccc(Br)c(C(F)(F)F)c2)C3)cc1` (racemic) [Compound 65b, (6SR)-7-[4-bromo-3-(trifluoromethyl)benzoyl]-2-[4-[(25)-2-hydroxypropoxy]phenyl]-6-methyl-3-oxo-N-[(2-pyrimidin-2-ylphenyl)methyl]-6,8-dihydro-5H-imidazo[1,5-a]pyrazine-1-carboxamide], the EC50 was 50 to 500 nM.
With `C[C@@H]1Cn2c(c(C(=O)NCc3ccccc3-c3ccncn3)n(-c3ccc(OCC4(O)CC4)cc3)c2=O)CN1C(=O)c1ccc(Br)c(C(F)(F)F)c1` (racemic) [Compound 74a, rac-(6R)-7-[4-bromo-3-(trifluoromethyl)benzoyl]-2-[4-[(1-hydroxycyclopropyl)methoxy]phenyl]-6-methyl-3-oxo-N-[(2-pyrimidin-4-ylphenyl)methyl]-6,8-dihydro-SH-imidazo[1,5-a]pyrazine-1-carboxamide] the EC50 was 50 to 500 nM.
`C[C@H]1Cn2c(c(C(=O)NCc3ccccc3-c3ncccn3)n(-c3ccc(N4CC5(CN(C)C5)C4)cc3)c2=O)CN1C(=O)c1ccc(Br)c(C(F)(F)F)c1` (racemic) [Compound 78b, rac-(6S)-7-[4-bromo-3-(trifluoromethyl)benzoyl]-6-methyl-2-[4-(6-methyl-2,6-diazaspiro[3.3]heptan-2-yl)phenyl]-3-oxo-N-[(2-pyrimidin-2-ylphenyl)methyl]-6,8-dihydro-SH-imidazo[1,5-a]pyrazine-1-carboxamide] was tested, and the EC50 was 50 to 500 nM.
Work on `CN[C@H](C)COc1ccc(-n2c(C(=O)NCc3ccccc3-c3ncccn3)c3n(c2=O)C[C@H](C)N(C(=O)c2ccc(Br)c(C(F)(F)F)c2)C3)cc1` (racemic) [Compound 95b, rac-(6S)-7-[4-bromo-3-(trifluoromethyl)benzoyl]-6-methyl-2-[4-[2-(methylamino)propoxy]phenyl]-3-oxo-N-[(2-pyrimidin-2-ylphenyl)methyl]-6,8-dihydro-5H-imidazo[1,5-a]pyrazine-1-carboxamide] yielded an EC50 of 50 to 500 nM.
`C[C@H](COc1ccc(-n2c(C(=O)NCc3ccccc3-c3ncccn3)c3n(c2=O)C[C@H](C)N(C(=O)c2ccc(Br)c(C(F)(F)F)c2)C3)cc1)N1CCOCC1` (racemic) [Compound 96b, rac-(6S)-7-[4-bromo-3-(trifluoromethyl)benzoyl]-6-methyl-2-[4-(2-morpholinopropoxy)phenyl]-3-oxo-N-[(2-pyrimidin-2-ylphenyl)methyl]-6,8-dihydro-5H-imidazo[1,5-a]pyrazine-1-carboxamide] was tested, and the EC50 was < 50 nM.
In the case of `Cc1nnc(-c2ccccc2CNC(=O)c2c3n(c(=O)n2-c2ccc(OC4CC4)cc2)CC(C)N(C(=O)c2ccc(Br)c(Cl)c2)C3)o1` (single isomer, unassigned) [Compound 1a, (S*)-7-(4-bromo-3-chlorobenzoyl)-2-(4-cyclopropoxyphenyl)-6-methyl-N-(2-(5-methyl-1,3,4-oxadiazol-2-yl)benzyl)-3-oxo-2,3,5,6,7,8-hexahydroimidazo[1,5-a]pyrazine-1-carboxamide], the EC50 is reported as 50 to 500 nM.
`CC1Cn2c(c(C(=O)NCc3c(F)cccc3-c3ccncn3)n(-c3ccc(OC4CC4)cc3)c2=O)CN1C(=O)c1ccc(Br)c(Cl)c1` (single isomer, unassigned) [Compound 2a, (S*)-7-(4-bromo-3-chlorobenzoyl)-2-(4-cyclopropoxyphenyl)-N-(2-fluoro-6-(pyrimidin-4-yl)benzyl)-6-methyl-3-oxo-2,3,5,6,7,8-hexahydroimidazo[1,5-a]pyrazine-1-carboxamide] showed an EC50 of 50 to 500 nM.
For `CC1Cn2c(c(C(=O)NCc3ccccc3-c3ncccn3)n(-c3ccc(OC4CC4)cc3)c2=O)CN1C(=O)c1ccc(Br)c(Cl)c1` (single isomer, unassigned) [Compound 3a, (6S*)-7-(4-bromo-3-chloro-benzoyl)-2-[4-(cyclopropoxy)phenyl]-6-methyl-3-oxo-N-[(2-pyrimidin-2-ylphenyl)methyl]-6,8-dihydro-5H-imidazo[1,5-a]pyrazine-1-carboxamide], the EC50 was < 50 nM.
`CC1Cn2c(c(C(=O)NCc3ccccc3-c3ccncn3)n(-c3ccc(-n4cccn4)cc3)c2=O)CN1C(=O)c1ccc(Br)c(Cl)c1` (single isomer, unassigned) [Compound 4a, 7-(4-bromo-3-chloro-benzoyl)-6-methyl-3-oxo-2-(4-pyrazol-1-ylphenyl)-N-[(2-pyrimidin-4-ylphenyl)methyl]-6,8-dihydro-5H-imidazo[1,5-a]pyrazine-1-carboxamide] gave an EC50 of 50 to 500 nM.

Source: patent US11845752B2, “Substituted imidazo[1,5-a]pyrazines for the treatment of hepatitis B” (ALIGOS THERAPEUTICS, INC., priority 2020, dated 2023)
